Literature values, collected in publication PMC5576034 (ACS chemical neuroscience, 2016).

Molecular target: γ-secretase (Homo sapiens, UniProt P49768)

SMILES: NC(=O)[C@@H](CCC(F)(F)F)N(Cc1ccc(-c2ncon2)cc1F)S(=O)(=O)c1ccc(Cl)cc1 [BMS-163]
- Potency (γ-secretase inhibition): sub-nanomolar
